PMC9409043, “Serotonin 5-HT6 Receptor Ligands and Butyrylcholinesterase Inhibitors Displaying Antioxidant Activity—Design, Synthesis and Biological Evaluation of Multifunctional Agents against Alzheimer’s Disease” (International Journal of Molecular Sciences, 2022)

Columns and labels:
[1] = Metal-chelating properties, spectrophotometric; settings: 50 µM ligand and Fe^2+, 250–400 nm
From the text: Metal-chelating properties. The homeostasis of metal ions in the brain is one of the important factors that determine its proper functioning. Disturbed levels of metal ions can lead to overproduction and aggregation of amyloid beta tau proteins and an increase in oxygen radicals production, leading to a degeneration of neurons observed in AD [55]. Additionally, it was observed that iron accumulation in microglia triggers a cascade of events leading to the production of a more sustained inflammatory response with increased reactive oxygen species (ROS) production and increased glycolysis. Adjusting the balance of metal ions by supplementing or chelating may be beneficial in alleviating AD pathology. Thus, we tested the metal-chelating properties of compounds 12–19 against 10 metal ions, recognised as potentially involved in AD. The formation of ligand–ion (Al^3+, Ca^2+, Co^2+, Cu^2+, Fe^2+, Fe^3+, Mg^2+, Ni^2+, Pb^2+ or Zn^2+) complexes was measured spectrophotometrically (250–400 nm with 4 nm interval) at 50 µM concentrations of both, according to the protocol reported previously. Metal-chelating ability was calculated as a shift of absorbance between the absorbance of the ligand–ion mixture and the sum of the absorbance of the ligand and ion separately. […]

CYP2D6 = target: T1, CYP2D6 (Homo sapiens, UniProt P10635); assay: CYP P450-Glo luminescence assay, CYP2D6; format: in vitro ADME; settings: human, CYP2D6 enzyme in the luminescent P450-Glo assay (Promega); 0.1 µM
T1 construct: purchased Promega, Madison, WI, USA
T1 sequence (P10635 whole entry): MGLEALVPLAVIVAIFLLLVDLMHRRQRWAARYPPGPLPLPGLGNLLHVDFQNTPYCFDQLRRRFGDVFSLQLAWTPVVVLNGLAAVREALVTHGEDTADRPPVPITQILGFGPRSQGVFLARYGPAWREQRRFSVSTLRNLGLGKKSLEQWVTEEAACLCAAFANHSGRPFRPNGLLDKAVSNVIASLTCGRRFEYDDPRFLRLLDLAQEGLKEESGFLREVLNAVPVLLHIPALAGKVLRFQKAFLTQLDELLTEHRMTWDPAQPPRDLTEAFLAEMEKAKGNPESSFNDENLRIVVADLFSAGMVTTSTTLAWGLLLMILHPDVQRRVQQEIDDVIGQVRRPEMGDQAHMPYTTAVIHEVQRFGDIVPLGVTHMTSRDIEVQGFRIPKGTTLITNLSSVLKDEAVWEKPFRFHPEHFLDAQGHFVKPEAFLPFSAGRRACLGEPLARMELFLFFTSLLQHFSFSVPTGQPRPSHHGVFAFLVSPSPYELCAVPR
From the text: Influence on CYP3A4 and CYP2D6 activity. Possible drug–drug interactions (DDIs) are an important issue for elderly patients, who are usually on multiple medications. They may result, among other things, from the interactions (inhibition or activation) of the cytochrome P450 isoenzymes, especially CYP3A4 and CYP2D6, which play the most significant role in drugs’ biotransformation. Therefore, to predict the potential influence of the studied compounds (14, 16 and 19) on the metabolism of other drugs, we used the CYP450 inhibition luminescence assay (Promega). […]. […] […]. […] […].
The influence on CYP 3A4 and 2D6 activity was estimated by respective luminescent CYP P450-Glo™ assay (Promega®, Madison, WI, USA). The compounds were tested in the concentration range of 0.1–25 µM. The results were compared to the respective reference CYP inhibitors: ketoconazole and quinidine.

[2] = Metabolic stability in mouse liver microsomes; format: in vitro ADME; settings: 2 h, pH 7.4
[3] = Metabolic stability in human liver microsomes; format: in vitro ADME
Procedure: Metabolic stability. […] For detailed results, including UPLC chromatograms and MS spectra, see the Supporting information (Figures S1–S16).
The metabolic stability was evaluated by incubation of compounds with human liver microsomes (Sigma-Aldrich, St. Louis, MO, USA) in 10 mM Tris–HCl buffer (pH 7.4) at 37 °C for 120 min in the presence of NADPH Regeneration System (Promega, Madison, WI, USA). The percentage of the remaining substrate and the most probable metabolic pathways were estimated by UPLC-MS analyses of the reaction mixtures.

[4] = system: HepG2 (human hepatocellular carcinoma) cells; assay: Hepatotoxicity, MTS cell viability test; format: cell-based; settings: 72 h
Procedure: Hepatotoxicity. To further investigate the safety of the compounds, we determined their hepatotoxicity. We used the MTS test that determines cell viability to assess the effect of compounds 14, 16 and 19 on HepG2 (human hepatocellular carcinoma) cells. The compounds were tested at 1, 10, 50 and 100 μM, and cytostatic drug doxorubicin (DX) at 1 μM was used as a reference compound. […]. The HepG2 (ATCC® HB-8065™) cell line was cultivated according to the procedure provided by ATCC. The tested compounds were incubated with cells for 72 h in the following concentrations: 1, 10, 50 and 100 μM. To evaluate the cells’ viability, CellTiter 96® AQueous Non-Radioactive Cell Proliferation Assay (MTS, Promega®, Madison, WI, USA) was performed. The antiproliferative drug doxorubicin was used as a positive control at the concentration of 1 µM. For determination of the IC50 value for compound 14, additional study was performed. The tested compound was incubated with the HepG2 cells for 72 h in the following nine concentrations: 0.001, 0.01, 0.1, 1, 5, 10, 25, 50 and 100 μM. The cells’ viability was estimated by MTS test. IC50 was calculated by Graph Pad Prism 8.0.1 software.

With O=c1[nH]c2c(OCCNCCC3CCN(Cc4ccccc4)CC3)cccc2n1Cc1ccccc1 [Compound 18, 1-Benzyl-4-(2-((2-(1-benzylpiperidin-4-yl)ethyl)amino)ethoxy)-1,3-dihydro-2H-benzo[d]imidazol-2-one] the “Fe^2+ chelating properties (shift of absorbance)” value [1] was “Fe^2+ ions chelators”.
With O=S(=O)(c1ccccc1)n1ccc2c(OCCNCCCC3CCN(Cc4ccccc4)CC3)cccc21 [Compound 14, 3-(1-Benzylpiperidin-4-yl)-N-(2-((1-(phenylsulfonyl)-1H-indol-4-yl)oxy)ethyl)propan-1-amine] the inhibition at 0.1 µM (CYP2D6) was roughly 20%, the “MLMs % Left” value [2] was 75.54% and the main metabolic pathway [3] was “oxidative deamination”. The “HLMs % Left” value ([3]; human, 2 h, pH 7.4) was 84.69%, the IC50 ([4]; Homo sapiens, HepG2, MTS test) was 2.16 µM and the “fold HepG2 IC50 over Ki for 5-HT6R and IC50 for hBuChE (safety margin)” value ([4]; human) was “at least 98 fold”.
For O=S(=O)(c1ccccc1)N1CCc2c(OCCNCC3CCN(Cc4ccccc4)CC3)cccc21 [Compound 15, N-((1-Benzylpiperidin-4-yl)methyl)-2-((1-(phenylsulfonyl)indolin-4-yl)oxy)ethan-1-amine], the “Fe^2+ chelating properties (shift of absorbance)” value [1] was “Fe^2+ ions chelators”.
